Results published in US20210161855A1, “5-LIPOXYGENASE ANTAGONISTS” (INSTITUTO DE MEDICINA MOLECULAR JOÃO LOBO ANTUNES, priority 2017, published 2021).
Where two headings read alike, the source gives them in different places.

Tests used:
TRPV1 = TRPV1 (Homo sapiens, UniProt Q8NER1); assay: TRPV1 channel antagonism, functional assay; assay type: cell-based; settings: 150 μM
[1] = molecular target: Phosphodiesterase 5 (PDE5) (Homo sapiens, UniProt O76074); assay: Phosphodiesterase 5 assay (Cerep); assay type: biochemical; settings: 2 μM
Method: Phosphodiesterase 5 (PDE5) assay was performed at Cerep, SA (Celle l'Evescault, France) on a fee-for-service basis (Ref 0204^39), as described in Table 2. [table]

HL-60 cells = assay: HL-60 cell viability with and without DMSO differentiation (Alamar Blue); assay type: cell-based; settings: Homo sapiens, 48 hours, n=1
Method: Cells were fixed with […] BD fix buffer while vortexing. […] After the required incubation time, cells were washed and incubated for another hour with goat anti-rabbit Alexa fluor 488 antibody. Cells are then washed and resuspended in PBS and acquired by LSRFortessa™ flow cytometer (BD Biosciences, USA) with a 488 nm laser, a 505 nm long-pass filter and a 530/30 nm band-pass filter (for FITC detection). Data was analyzed using the FlowJo software. […] Cells were treated with varying concentration of β-lapachone for a time period of 48 hours. Cell death was analyzed using standard Alamar Blue assay. Data is represented after being normalized to the vehicle control.

5-LO = molecular target: T1, 5-LO (Homo sapiens, UniProt P09917); assay: 5-LO activity in neutrophil homogenates; assay type: biochemical; set-up: endogenous in cells; host or cells: neutrophils isolated from peripheral blood of healthy adult volunteers; intact or sonicated homogenates; settings: n=3
T1 sequence (P09917 1-674): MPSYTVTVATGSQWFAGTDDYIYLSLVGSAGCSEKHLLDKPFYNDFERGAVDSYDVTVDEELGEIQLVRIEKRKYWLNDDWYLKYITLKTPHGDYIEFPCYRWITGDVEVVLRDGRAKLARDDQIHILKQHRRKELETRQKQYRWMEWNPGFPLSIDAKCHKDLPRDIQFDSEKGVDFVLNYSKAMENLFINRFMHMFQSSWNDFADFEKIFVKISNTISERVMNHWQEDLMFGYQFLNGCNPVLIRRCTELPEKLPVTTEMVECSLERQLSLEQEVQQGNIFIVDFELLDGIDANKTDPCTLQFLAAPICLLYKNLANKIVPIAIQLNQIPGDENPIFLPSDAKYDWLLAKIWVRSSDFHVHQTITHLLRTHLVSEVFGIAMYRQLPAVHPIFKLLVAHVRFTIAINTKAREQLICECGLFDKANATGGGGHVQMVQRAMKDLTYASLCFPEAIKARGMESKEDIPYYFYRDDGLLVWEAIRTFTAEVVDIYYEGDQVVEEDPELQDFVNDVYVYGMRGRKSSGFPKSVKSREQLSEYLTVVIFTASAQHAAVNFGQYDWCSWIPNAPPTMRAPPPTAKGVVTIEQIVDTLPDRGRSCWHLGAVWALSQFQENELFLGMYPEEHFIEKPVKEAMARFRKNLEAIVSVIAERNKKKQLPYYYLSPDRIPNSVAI
Method: Peripheral blood (University Hospital Jena, Germany) was withdrawn from healthy adult volunteers with consent that had not taken any anti-inflammatory drugs during the last 10 days, by venipuncture in heparinized tubes (16 IE heparin/mL blood). The blood was centrifuged at 4000 g for 20 min at 20° C. for preparation of leukocyte concentrates. Leukocyte concentrates were then subjected to dextran sedimentation and centrifugation on lymphocyte separation medium (LSM 1077, PAA, Colbe, Germany). Contaminating erythrocytes of pelleted neutrophils were removed by hypotonic Iysis. Neutrophils were then washed twice in ice-cold PBS and finally resuspended in PBS pH 7.4 containing 1 mg/mL glucose or in PBS pH 7.4 containing 1 mg/mL glucose plus 1 mM CaCl2 (PGC buffer) (purity>96-97%).
For analysis of 5-LO product formation in corresponding homogenates, neutrophils were resuspended in PBS containing 1 mM EDTA for 5 min at 4° C. and sonicated (4×10 s, 4° C.). Homogenates, corresponding to 5×10^6 cells/mL, were incubated with the test compounds or vehicle (0.1% DMSO) with or without 1 mM DTT for 15 min at 4° C., pre-warmed for 30 s at 37° C., and the reaction was started by the addition of 2 mM CaCl2 plus the indicated concentrations of AA (routinely 20 μM). The reaction was stopped after 10 min and the samples were analyzed as described for intact cells above.
Data are expressed as mean±S.E.M. IC50 values were calculated from averaged measurements at 6 different concentrations of the compound by nonlinear regression using GraphPad Prism software (San Diego, Calif.) one site binding competition. Statistical evaluation of the data was performed by one-way ANOVA followed by a Tukey-Kramer post-hoc test for multiple comparisons respectively. A p value<0.05 (*) was considered significant.

5-lipoxygenase (5-LO) = molecular target: T2, 5-lipoxygenase (5-LO) (Homo sapiens, UniProt P09917); assay: 5-LO inhibition assay, Method A (Cerep), cell-free functional; assay type: biochemical
T2 sequence (P09917 1-674): T1 sequence (P09917 1-674)
Method: Method A: 5-Lipoxygenase (5-LO), 12-lipoxygenase (12-LO) and 15-lipoxygenase-2 (15-LO-2) inhibition assays were performed at Cerep, SA (Celle l'Evescault, France) on a fee-for-service basis (Ref 0772^36, 0883^37 and 0893^38, respectively), as described in Table 1.

Chain of TRPV1 (Q8NER1 whole entry, species assumed): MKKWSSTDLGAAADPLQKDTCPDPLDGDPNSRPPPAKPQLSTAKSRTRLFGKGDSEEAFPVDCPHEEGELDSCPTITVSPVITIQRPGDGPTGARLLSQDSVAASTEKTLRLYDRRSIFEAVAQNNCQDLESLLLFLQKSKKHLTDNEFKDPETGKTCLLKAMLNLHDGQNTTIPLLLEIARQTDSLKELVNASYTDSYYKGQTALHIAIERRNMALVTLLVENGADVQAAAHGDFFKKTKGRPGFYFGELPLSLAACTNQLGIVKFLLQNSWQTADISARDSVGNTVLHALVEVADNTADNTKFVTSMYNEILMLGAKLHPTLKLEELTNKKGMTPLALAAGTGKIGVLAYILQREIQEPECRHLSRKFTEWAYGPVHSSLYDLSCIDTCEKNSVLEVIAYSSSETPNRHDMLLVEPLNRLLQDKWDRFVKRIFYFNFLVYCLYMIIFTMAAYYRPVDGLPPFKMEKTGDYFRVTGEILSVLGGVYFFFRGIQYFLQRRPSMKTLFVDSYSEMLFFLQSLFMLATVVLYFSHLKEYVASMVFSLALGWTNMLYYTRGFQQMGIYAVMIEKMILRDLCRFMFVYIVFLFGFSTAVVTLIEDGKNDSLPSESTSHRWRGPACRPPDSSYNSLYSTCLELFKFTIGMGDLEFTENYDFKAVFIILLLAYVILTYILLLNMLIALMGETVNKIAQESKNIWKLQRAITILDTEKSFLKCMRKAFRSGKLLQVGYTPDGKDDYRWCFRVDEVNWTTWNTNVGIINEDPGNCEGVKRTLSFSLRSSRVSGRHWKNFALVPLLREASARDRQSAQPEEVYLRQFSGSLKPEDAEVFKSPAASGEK

CC1(C)CCC2=C(O1)c1ccccc1C(=O)C2=O [Compound 1, 3,4-dihydro-2,2-dimethyl-2H-naphtho[1,2-b]pyran-5,6-dione]
TRPV1 antagonist effect (TRPV1): 63% | PDE5 screening outcome [1]: inactivity | IC50 (HL-60 cells; DMSO-stimulated HL-60 cells overexpressing 5-LO, read-out: IC50 (differentiated), HL-60): 180 nM | IC50 (HL-60 cells; control HL-60 cells, read-out: IC50 (control), HL-60): 390 nM | IC50 (5-LO; 1 mM DTT, read-out: IC50 (with DTT), 5-LO activity in neutrophil homogenates): 90 nM | IC50 (5-LO; absence of DTT, read-out: IC50 (without DTT), 5-LO activity in neutrophil homogenates): 5200 nM | Ligand efficiency (LE), 5-LO (5-lipoxygenase (5-LO); from IC50 2.1 μM): 0.44 | inhibition at 150 µM (5-lipoxygenase (5-LO); read-out: 5-LO inhibition at the assayed concentration): 96% | IC50 (5-lipoxygenase (5-LO); reducing conditions): 2100 nM
